In patent US20100291236A1, “OSMIUM COMPOUNDS” (THE UNIVERSITY OF WARWICK, priority 2006, published 2010):
“Also recorded” adds a separate entry of the source. Where two headings read alike, the source gives them in different places.

Tests used:
[1] = system: 9-ethyl adenine (9EtA); test: Reaction with nucleobase model 9-ethyl adenine, 1H NMR; assay type: binding; conditions: pH* close to 7.4, 298 K
Experimental: (§1) Since DNA is believed to be the main target for metal anticancer drugs, nucleobase binding reactions of compounds 3-6, with nucleobase models, 9-ethyl guanine (9EtG) and 9-ethyl adenine (9EtA), were investigated.
(§2) Solutions of 3-6 (1 mM) (present as an equilibrium between 3-6 and their respective aqua adducts as the major species) with 1 mol equivalent of 9EtG (Table 14) or 9EtA (Table 15) in D2O were prepared and ^1H NMR spectra were taken at different time intervals.
(§3) Interactions with Nucleobases. The reaction of compounds 8-12 with nucleobases typically involved addition of a solution containing 1 mol equiv of nucleobase in D2O, to an equilibrium solution of compounds 8-12 in D2O (>90% aqua). The pH* value of the sample was adjusted if necessary so as to remain close to 7.4 (physiological). ^1H NMR spectra of these solutions were recorded at 298 K after various time intervals.

[2] = Hydrolysis (aquation) kinetics followed by 1H NMR; assay type: physicochemical; conditions: Table 18; 288 K; 0.8 mM
Experimental: Hydrolysis. […] The rate of hydrolysis was determined by fitting plots of concentrations (determined by ^1H NMR peak integrals) versus time to a pseudo first-order equation using ORIGIN version 5.0 (Microcal Software Ltd.).

[3] = system: 9-ethyl guanine (9EtG); test: Reaction with nucleobase model 9-ethyl guanine, 1H NMR; assay type: binding; conditions: pH* close to 7.4, 298 K
Experimental: as §1, §2, §3

[4] = Acidity (pKa / pKa*) of coordinated water, 1H NMR pH* titration; conditions: aqua adduct
Text: pKa* calculations. […] The chemical shifts of the arene ring protons were plotted against pH*. The pH* titration curves were fitted to the Henderson-Hasselbalch equation, with the assumption that the observed chemical shifts are weighted averages according to the populations of the protonated and deprotonated species.

[5] = system: human lung A549 cancer cells; test: Cytotoxicity towards A549 cells, sulforhodamine B (SRB) assay; assay type: cell-based
Experimental: (§4) Experimental: Cytotoxicity Towards A2780 and A549 Human Cancer Cells. After plating, human ovarian A2780 cancer cells were treated with Os^II complexes on day 3, and human lung A549 cancer cells on day 2, at concentrations ranging from 2 μM to 50 μM. Solutions of the Os^II complexes were made up in 0.125% DMSO to assist dissolution. Cells were exposed to the complexes for 24 h, washed, supplied with fresh medium, allowed to grow for three doubling times (72 h), and then the protein content measured (proportional to cell survival) using the sulforhodamine B (SRB) assay.
(§5) Cancer Cell Cytotoxicity. After plating, human ovarian A2780 cancer cells were treated with OsII complexes on day 3, and human lung A549 cancer cells on day 2, at concentrations ranging from 0.1 μM to 100 μM. Solutions of the OsII complexes were made up in 0.125% DMSO to assist dissolution. Cells were exposed to the complexes for 24 h, washed, supplied with fresh medium, allowed to grow for three doubling times (72 h), and then the protein content measured (proportional to cell survival) using the sulforhodamine B (SRB) assay.10

[6] = system: human ovarian A2780 cancer cells; test: Cytotoxicity towards A2780 cells, sulforhodamine B (SRB) assay; assay type: cell-based
Experimental: as §4, §5

[7] = Table 7, 24 h exposure, 72 h growth, 2-50 μM, read-out: IC50/μM A549
[8] = Table 7, 24 h exposure, 72 h growth, 2-50 μM, read-out: IC50/μM A2780

Compound	+1 eq. 9-EtA (% adduct formation) ([1]; t = 0.17 h)	+1 eq. 9-EtA (% adduct formation) ([1]; t = 24 h)	Hydrolysis k/h^−1 [2]	+1 eq. 9-EtG (% adduct formation) ([3]; t = 0.17 h)	+1 eq. 9-EtG (% adduct formation) ([3]; t = 24 h)	pKa of water coordinated on hydrolysis (aqua adduct of complex) [4]	IC50 [5, 7]	IC50 [6, 8]	also measured
O=C(c1ccccn1)[N]([Os][Cl])c1ccccc1.c1ccc(-c2ccccc2)cc1 [Compound 10, [(η^6-bip)Os(N-Ph-picolinamide)Cl]PF6]	0%	0%	≧5.9 h^−1	73%	73%	–	–	–	–
Cc1ccc(C(C)C)cc1.O=C1c2cccc[n+]2[Os-]([Cl])[N]1c1ccccc1[N+](=O)[O-] [Compound 11]	0%	0%	≧5.9 h^−1	69%	69%	–	–	–	–
C1=CCC2=C(C1)Cc1ccccc1C2.F[P-](F)(F)(F)(F)F.NCCN.[Cl][Ru+] [HC11, reference compound]	–	–	–	–	–	8.01	0.5 µM	0.5 µM	–
CC(=O)C=C(C)[O][Ru][Cl].Cc1ccc(C(C)C)cc1 [MMS6, reference compound]	–	–	–	–	–	9.4	> 100 µM	19 µM	–
Cc1ccc(C(C)C)cc1.NCC(=O)[O][Ru][Cl] [RF01, reference compound]	–	–	–	–	–	8.65	–	> 100 µM	–
CC(N)C(=O)[O][Ru][Cl].Cc1ccc(C(C)C)cc1 [RF02(a), reference compound]	–	–	–	–	–	–	–	> 100 µM	–
Cc1ccc(C(C)C)cc1.NCCC(=O)[O][Ru][Cl] [RF11, reference compound]	–	–	–	–	–	–	–	> 100 µM	–
O=C([O][Ru][Cl])C1CCCCN1.c1ccc(-c2ccccc2)cc1 [RF16, reference compound]	–	–	–	–	–	–	–	> 100 µM	–
[(η^6-p-cym)Os(N-2,4-difluoride-Ph-picolinamide)Cl]PF6 [Compound 8]	0%	0%	≧5.9 h^−1	56%	56%	–	–	–	Activity in A549 cancer cell line [5]: moderately cytotoxic; IC50 ([5]; Example 6, read-out: IC50 in human lung A549 cancer cell line): 10 to 50 µM; Activity in A2780 cancer cell line [6]: cytotoxic; also recorded: active; IC50 ([6]; Table 19, read-out: IC50 (μM) in A2780): 8.2 µM
[(η^6-p-cym)Os(O2C6H3CH3NCH3)Cl] [AFAP57]	–	–	–	–	–	8.31	> 100 µM	40 µM	–
